In brackets after ≈: the same amount, converted by molar mass.

This test relates to Artemia. Description: Cytotoxicity in brine shrimps larvae assessed as mortality after 24 hrs. The format is functional. Conditions: read-out: ED50 (the source's name).
In the case of `O=C1NC(=O)/C(=C/c2ccc(/C=C/C(=O)c3cccc(F)c3)cc2)S1`, the EC50 stood at 4 µg/mL (≈ 11.3 µM). Consider `O=C1NC(=O)/C(=C/c2ccc(/C=C/C(=O)c3ccc(F)cc3)cc2)S1`, for which the EC50 was 4 µg/mL (≈ 11.3 µM). For `COc1cc([C@@H]2c3cc4c(cc3[C@H](O)[C@H]3COC(=O)[C@H]23)OCO4)cc(OC)c1OC` [PODOFILOX], the EC50 amounted to 3.61 µg/mL (≈ 8.71 µM). As for `O=C1NC(=O)/C(=C/c2ccc(/C=C/C(=O)c3cccs3)cc2)S1`, the EC50 was 4 µg/mL (≈ 11.7 µM).

The values are drawn from ChEMBL document CHEMBL3352677, “Thiazolidine-2,4-diones as multi-targeted scaffold in medicinal chemistry: Potential anticancer agents” (2014).
